Source: patent US20250345351A1, “OLIGOSACCHARIDE COMPOSITIONS AND METHODS OF USE” (DSM NUTRITIONAL PRODUCTS, LLC, priority 2020, published 2025)

Columns and labels:
[1] = test system: fecal microbiome of healthy subjects; test: Ex vivo fermentation in the presence of mesalamine: 16S rRNA amplicon sequencing, Bray-Curtis dissimilarity (Example 23); format: cell-based, human; conditions: all 5-ASA concentrations tested; replicate sequencing dissimilarity 0.06 (S.D. 0.03)
Protocol: (§1) 5-aminosalicilic acids (5-ASA), such as mesalamine, are standard-of-care compounds for the treatment of patients with mild-to-moderate ulcerative colitis. The ability of the selected oligosaccharide composition to support the growth of microbial taxa in the presence of mesaline was determined. Fecal samples from ten healthy subjects were incubated anaerobically in supplemented Clostridium minimal medium without (negative control) or with the selected oligosaccharide composition. Samples with the selected oligosaccharide composition were also incubated with 0.0, 0.5, 2, 8, 32, 125, or 500 μM mesalamine. Each fecal sample incubation was performed with three biological replicates. After incubation, samples were sedimented by centrifugation and culture supernatants were collected for SCFA quantification by GC-FID.
To understand if mesalamine influenced understand the shifts in taxonomic composition produced by incubation with the selected oligosaccharide composition, the fecal samples were characterized by 16S rRNA amplicon seuquencing. Genomic DNA was extracted from fecal samples using DNeasy PowerSoil extraction plates (Qiagen) and quantified using the Quant-iT PicoGreen dsDNA assay (Invitrogen). 16S rRNA libraries were prepared by PCR amplification with the 515F/806R primer set before sequencing on the Illumina NextSeq platform to at least 25 thousand reads. […]

[2] = test system: fecal samples from ten healthy subjects; test: Ex vivo fermentation of the selected oligosaccharide composition in the presence of mesalamine: SCFA by GC-FID (Example 23); format: cell-based, human; conditions: 0.5, 2, 8, 32, 125, or 500 μM mesalamine with the composition
Protocol: as §1, with “mesaline was” left out

Nc1ccc(O)c(C(=O)O)c1 [mesalamine]
mean Bray-Curtis dissimilarity to samples incubated with the composition and without mesalamine [1]: 0.06 (S.D. 0.02)
effect on SCFA production by the selected oligosaccharide composition [2]: none of the samples incubated with mesalamine showed any significant differences in SCFA production
